Reference: ChEMBL document CHEMBL5579851, “Synthesis and antifungal evaluation of novel triazole derivatives bearing a pyrazole-methoxyl moiety” (Eur J Med Chem, 2024)
≈ marks a conversion by molar mass, not a printed value. Calls of active or inactive are those of the source. The calls are words filed in the database; no cut-off is given here.

Assays:
Candida albicans [1] = experiment: Antifungal activity against Candida albicans SC5314 assessed as inhibition of fungal growth incubated for 48 hrs by CLSI based broth microdilution assay; type: functional
Candida albicans [2] = experiment: Antifungal activity against Candida albicans 10231 assessed as inhibition of fungal growth incubated for 48 hrs by CLSI based broth microdilution assay; type: functional
Cryptococcus neoformans = experiment: Antifungal activity against Cryptococcus neoformans 32609 assessed as inhibition of fungal growth incubated for 72 hrs by CLSI based broth microdilution assay; type: functional
Nakaseomyces glabratus = experiment: Antifungal activity against Candida glabrata 537 assessed as inhibition of fungal growth incubated for 48 hrs by CLSI based broth microdilution assay; type: functional
Candida parapsilosis = experiment: Antifungal activity against Candida parapsilosis 22019 assessed as inhibition of fungal growth incubated for 48 hrs by CLSI based broth microdilution assay; type: functional; details: Lodderomyces parapsilosis
Pichia kudriavzevii = experiment: Antifungal activity against Candida krusei 4996 assessed as inhibition of fungal growth incubated for 48 hrs by CLSI based broth microdilution assay; type: functional
Candida tropicalis = experiment: Antifungal activity against Candida tropicalis 8915 assessed as inhibition of fungal growth incubated for 48 hrs by CLSI based broth microdilution assay; type: functional
Candida albicans [3] = experiment: Antifungal activity against fluconazole-resistant Candida albicans 901 assessed as inhibition of fungal growth incubated for 48 hrs by CLSI based broth microdilution assay; type: functional
Candida albicans [4] = experiment: Antifungal activity against fluconazole-resistant Candida albicans 904 assessed as inhibition of fungal growth incubated for 48 hrs by CLSI based broth microdilution assay; type: functional
[Candida] auris [5] = Antifungal activity against fluconazole-resistant Candida auris 891 assessed as inhibition of fungal growth incubated for 48 hrs by CLSI based broth microdilution assay; type: functional; details: Candidozyma auris
[Candida] auris [6] = Antifungal activity against fluconazole-resistant Candida auris 918 assessed as inhibition of fungal growth incubated for 48 hrs by CLSI based broth microdilution assay; type: functional; details: Candidozyma auris
[Candida] auris [7] = Antifungal activity against fluconazole-resistant Candida auris 919 assessed as inhibition of fungal growth incubated for 48 hrs by CLSI based broth microdilution assay; type: functional; details: Candidozyma auris
Saccharomyces cerevisiae [8] = experiment: Antifungal activity against recombinant Saccharomyces cerevisiae Y525 overexpressing CaMdr1 assessed as inhibition of fungal growth incubated for 48 hrs by CLSI based broth microdilution assay; type: functional
Saccharomyces cerevisiae [9] = experiment: Antifungal activity against recombinant Saccharomyces cerevisiae Y570 overexpressing CaCdr1 assessed as inhibition of fungal growth incubated for 48 hrs by CLSI based broth microdilution assay; type: functional
Saccharomyces cerevisiae [10] = experiment: Antifungal activity against recombinant Saccharomyces cerevisiae Y2765 overexpressing CauMdr1 assessed as inhibition of fungal growth incubated for 48 hrs by CLSI based broth microdilution assay; type: functional
Saccharomyces cerevisiae [11] = experiment: Antifungal activity against recombinant Saccharomyces cerevisiae Y2766 overexpressing CauCdr1 assessed as inhibition of fungal growth incubated for 48 hrs by CLSI based broth microdilution assay; type: functional
Saccharomyces cerevisiae [12] = experiment: Antifungal activity against recombinant Saccharomyces cerevisiae Y2411 overexpressing ScErg11 assessed as inhibition of fungal growth incubated for 48 hrs by CLSI based broth microdilution assay; type: functional
Saccharomyces cerevisiae [13] = experiment: Antifungal activity against recombinant Saccharomyces cerevisiae Y2300 overexpressing ScErg11 assessed as inhibition of fungal growth incubated for 48 hrs by CLSI based broth microdilution assay; type: functional
Saccharomyces cerevisiae [14] = experiment: Antifungal activity against recombinant Saccharomyces cerevisiae Y2462 overexpressing ScErg11/ScNcp1 assessed as inhibition of fungal growth incubated for 48 hrs by CLSI based broth microdilution assay; type: functional
Saccharomyces cerevisiae [15] = experiment: Antifungal activity against recombinant Saccharomyces cerevisiae Y2459 overexpressing CaErg11/CaCpr assessed as inhibition of fungal growth incubated for 48 hrs by CLSI based broth microdilution assay; type: functional
Saccharomyces cerevisiae [16] = experiment: Antifungal activity against recombinant Saccharomyces cerevisiae Y2374 overexpressing CgErg11 assessed as inhibition of fungal growth incubated for 48 hrs by CLSI based broth microdilution assay; type: functional
Saccharomyces cerevisiae [17] = experiment: Antifungal activity against recombinant Saccharomyces cerevisiae Y2721 overexpressing CpErg11/CpCpr assessed as inhibition of fungal growth incubated for 48 hrs by CLSI based broth microdilution assay; type: functional
Saccharomyces cerevisiae [18] = experiment: Antifungal activity against recombinant Saccharomyces cerevisiae Y2767 overexpressing CauErg11 assessed as inhibition of fungal growth incubated for 48 hrs by CLSI based broth microdilution assay; type: functional
Saccharomyces cerevisiae [19] = experiment: Antifungal activity against recombinant Saccharomyces cerevisiae Y2711 overexpressing CnErg11 assessed as inhibition of fungal growth incubated for 48 hrs by CLSI based broth microdilution assay; type: functional
Saccharomyces cerevisiae [20] = experiment: Antifungal activity against recombinant Saccharomyces cerevisiae Y2301 overexpressing ScErg11 Y140F mutant assessed as inhibition of fungal growth incubated for 48 hrs by CLSI based broth microdilution assay; type: functional
Saccharomyces cerevisiae [21] = experiment: Antifungal activity against recombinant Saccharomyces cerevisiae Y2513 overexpressing ScErg11 Y140H mutant assessed as inhibition of fungal growth incubated for 48 hrs by CLSI based broth microdilution assay; type: functional
Saccharomyces cerevisiae [22] = experiment: Antifungal activity against recombinant Saccharomyces cerevisiae Y2716 overexpressing CpErg11 Y132F mutant/ CpCpr assessed as inhibition of fungal growth incubated for 48 hrs by CLSI based broth microdilution assay; type: functional
Saccharomyces cerevisiae [23] = experiment: Antifungal activity against recombinant Saccharomyces cerevisiae Y2768 overexpressing CauErg11 T132F mutant assessed as inhibition of fungal growth incubated for 48 hrs by CLSI based broth microdilution assay; type: functional
Saccharomyces cerevisiae [24] = experiment: Antifungal activity against recombinant Saccharomyces cerevisiae Y2769 overexpressing CauErg11 K143R mutant assessed as inhibition of fungal growth incubated for 48 hrs by CLSI based broth microdilution assay; type: functional
Candida albicans [25] = experiment: Antifungal activity against Candida albicans SC5314 assessed as inhibition of fungal growth at 0.125 ug/ml after 12 hrs by TECAN plate reader analysis; type: functional, organism-based; details: dose 0.125 µg/ml
Candida albicans [26] = experiment: Antifungal activity against Candida albicans SC5314 assessed as inhibition of fungal growth at 2 ug/ml after 36 hrs by TECAN plate reader analysis; type: functional, organism-based; details: dose 2.0 µg/ml
Candida albicans [27] = experiment: Antifungal activity against Candida albicans SC5314 assessed as inhibition of hyphae formation at 0.0625 to 0.5 ug/ml after 3 hrs by inverted microscopic analysis; type: functional, organism-based; details: dose 0.0625-0.5 µg/ml
Candida albicans [28] = experiment: Antifungal activity against Candida albicans SC5314 assessed as inhibition of hyphae length at 0.0625 to 0.5 ug/ml after 3 hrs by inverted microscopic analysis; type: functional, organism-based; details: dose 0.0625-0.5 µg/ml
Candida albicans [29] = experiment: Antifungal activity against Candida albicans SC5314 assessed as inhibition of hyphae length at 1 ug/ml after 3 hrs by inverted microscopic analysis; type: functional, organism-based; details: dose 1.0 µg/ml
Candida albicans [30] = experiment: Antifungal activity against Candida albicans SC5314 assessed as inhibition of hyphae formation by measuring pseudohyphae at 1 ug/ml after 3 hrs by inverted microscopic analysis; type: functional, organism-based; details: dose 1.0 µg/ml
Candida albicans [31] = experiment: Antibiofilm activity against Candida albicans SC5314 assessed as inhibition of biofilm formation at 64 ug/mL incubated for 24 hrs by XTT assay relative to control; type: functional
Candida albicans [32] = experiment: Antibiofilm activity against Candida albicans SC5314 assessed as increase in matured biofilm distruption at 64 ug/ml incubated for 24 hrs by XTT assay relative to control; type: functional; details: dose 64 µg/ml
[33] = target: T1, Lanosterol 14-alpha demethylase (Candida albicans (strain SC5314 / ATCC MYA-2876) (Yeast), UniProt P10613); experiment: Inhibition of CYP51 in Candida albicans SC5314 assessed as ergosterol level at 0.5 ug/ml after 8 hrs by GC-MS analysis (reference value: 86.2 %); set-up: scale not given: the % may be the effect or the level left; details: at 0.5 µg/mL
T1 sequence (P10613 whole entry): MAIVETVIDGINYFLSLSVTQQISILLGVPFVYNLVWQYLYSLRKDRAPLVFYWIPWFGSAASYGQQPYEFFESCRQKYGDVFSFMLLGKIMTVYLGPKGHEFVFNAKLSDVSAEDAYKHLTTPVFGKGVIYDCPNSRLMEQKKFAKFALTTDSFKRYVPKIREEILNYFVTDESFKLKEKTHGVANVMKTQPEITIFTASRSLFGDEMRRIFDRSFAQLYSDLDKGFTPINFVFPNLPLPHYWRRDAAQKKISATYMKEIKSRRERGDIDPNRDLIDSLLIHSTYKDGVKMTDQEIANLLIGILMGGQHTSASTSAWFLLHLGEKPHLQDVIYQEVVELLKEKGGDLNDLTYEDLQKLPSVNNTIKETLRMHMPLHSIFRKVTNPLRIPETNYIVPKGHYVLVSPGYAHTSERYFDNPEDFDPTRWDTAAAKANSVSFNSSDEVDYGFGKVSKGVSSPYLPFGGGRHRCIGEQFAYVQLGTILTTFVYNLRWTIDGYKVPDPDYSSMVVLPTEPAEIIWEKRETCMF

[34] = target: T1, Lanosterol 14-alpha demethylase; experiment: Inhibition of CYP51 in Candida albicans SC5314 assessed as lanosterol level at 0.5 ug/ml after 8 hrs by GC-MS analysis (reference value: 5.9 %); set-up: scale not given: the % may be the effect or the level left; details: at 0.5 µg/mL
[35] = target: T1, Lanosterol 14-alpha demethylase; experiment: Inhibition of CYP51 in Candida albicans SC5314 assessed as eburicol level at 0.5 ug/ml after 8 hrs by GC-MS analysis relative to control; set-up: scale not given: the % may be the effect or the level left; details: at 0.5 µg/mL
[36] = target: T1, Lanosterol 14-alpha demethylase; experiment: Inhibition of CYP51 in Candida albicans SC5314 assessed as obtusifoliol level at 0.5 ug/ml after 8 hrs by GC-MS analysis relative to control; set-up: scale not given: the % may be the effect or the level left; details: at 0.5 µg/mL
[37] = target: T1, Lanosterol 14-alpha demethylase; experiment: Inhibition of CYP51 in Candida albicans SC5314 assessed as 14alpha-methylfecosterol level at 0.5 ug/ml after 8 hrs by GC-MS analysis relative to control; set-up: scale not given: the % may be the effect or the level left; details: at 0.5 µg/mL
Cell membrane [38] = experiment: Induction of membrane permeabilization in Candida albicans SC5314 assessed as increase in fluorescence at 0.5 ug/ml incubated for 8 hrs by propidium iodide staining based fluorescence microscopic analysis; details: dose 0.5 µg/ml
Cell membrane [39] = experiment: Induction of membrane permeabilization in Candida albicans SC5314 assessed as increase in fluorescence at 4 ug/ml incubated for 8 hrs by propidium iodide staining based fluorescence microscopic analysis; details: dose 4.0 µg/ml
[40] = Cytotoxicity against HUVEC cells assessed as cell viability at 128 ug/ml incubated for 24 hrs by CCK-8 assay relative to control; type: toxicity, cell-based; details: human, at 128 µg/mL, read-out: Activity

Compound: OC(Cn1cncn1)(Cn1cncn1)c1ccc(F)cc1F [FLUCONAZOLE]
- MIC (Candida albicans [1]): 0.5 µg/mL (≈ 1.63 µM)
- MIC (Candida albicans [2]): > 64 µg/mL
- MIC (Cryptococcus neoformans): 2 µg/mL (≈ 6.53 µM)
- MIC (Nakaseomyces glabratus): 1 µg/mL (≈ 3.27 µM)
- MIC (Candida parapsilosis): 4 µg/mL (≈ 13.1 µM)
- MIC (Pichia kudriavzevii): 64 µg/mL (≈ 209 µM)
- MIC (Candida tropicalis): > 64 µg/mL
- MIC (Candida albicans [3]): > 256 µg/mL
- MIC (Candida albicans [4]): > 256 µg/mL
- MIC ([Candida] auris [5]): > 256 µg/mL
- MIC ([Candida] auris [6]): > 256 µg/mL
- MIC ([Candida] auris [7]): > 256 µg/mL
- MIC (Saccharomyces cerevisiae [8]): > 64 µg/mL
- MIC (Saccharomyces cerevisiae [9]): > 64 µg/mL
- MIC (Saccharomyces cerevisiae [10]): 64 µg/mL
- MIC (Saccharomyces cerevisiae [11]): > 64 µg/mL
- MIC (Saccharomyces cerevisiae [12]): 1 µg/mL
- MIC (Saccharomyces cerevisiae [13]): 4 µg/mL
- MIC (Saccharomyces cerevisiae [14]): 8 µg/mL
- MIC (Saccharomyces cerevisiae [15]): 2 µg/mL
- MIC (Saccharomyces cerevisiae [16]): 4 µg/mL
- MIC (Saccharomyces cerevisiae [17]): 4 µg/mL
- MIC (Saccharomyces cerevisiae [18]): 4 µg/mL
- MIC (Saccharomyces cerevisiae [19]): 0.5 µg/mL
- MIC (Saccharomyces cerevisiae [20]): 4 µg/mL
- MIC (Saccharomyces cerevisiae [21]): 4 µg/mL
- MIC (Saccharomyces cerevisiae [22]): 8 µg/mL
- MIC (Saccharomyces cerevisiae [23]): 64 µg/mL
- MIC (Saccharomyces cerevisiae [24]): 32 µg/mL
- inhibition (Candida albicans [25]): inactive
- inhibition (Candida albicans [26]): inactive
- inhibition (Candida albicans [27]): inactive
- inhibition (Candida albicans [28]): inactive
- inhibition (Candida albicans [29]): Active
- inhibition (Candida albicans [30]): Active
- inhibition at 64 µg/mL (Candida albicans [31]): ~28%
- Activity (Candida albicans [32]): 38%
- Activity [33]: 39.8%
- Activity [34]: 38%
- Activity [35]: 2%
- Activity [36]: 2%
- Activity [37]: 20%
- Activity (Cell membrane [38]): inactive
- Activity (Cell membrane [39]): Active
- viability at 24 h, 128 ug/ml [40]: 83%
